Measurements from patent publication EP0035728A1, “Cytostatically active amino-polyols, medicaments containing these compounds and their use” (Henkel Kommanditgesellschaft auf Aktien, priority 1980, dated 1981).

Assays:
[1] = Cytostatic activity (test not described further); conditions: result in words, no test conditions given
[2] = system: Tumorart P 388 (Leukämie); assay: P 388 leukemia survival test in mice (NCI protocol 1200), T/C; assay type: in vivo, Mäusen; conditions: nine doses, P 388 set i.p. with 10^6 cells/mouse, survival vs untreated controls
Procedure: Die T/C-Werte dieser Verbindung bei ihrer Austestung am TumorP 388 (Leukämie) unter Standardprüfbedingungen betragen 166 % (100 mg/kg) bzw. 165 % (50 mg/kg).
Die nachfolgenden Versuche wurden durchgeführt nach Testvorschriften des National Cancer Intitute Bethesda; Maryland 200014, veröffentlicht in "Cancer Chemotherapy Reports" Part 3, September 1972, Vol. 3, Nr. 2. Als Wirksubstanz wurde das Di-(2-hydroxy-3-brompropan)-glucamin des Beispiels 1 verwendet. Die Substanz wurde als wäßrige 1-%ige Injektionslösung unmittelbar vor der Applikation frisch hergestellt.
Bei Mäusen wurde gemäß Protokoll 1200 (Seite 91.c.) die Tumorart P 388 (Leukämie) i.p. mit 10^6 Zellen/Maus gesetzt. Die mittlere Überlebensdauer der nicht mit dem erfindungsgemäßen Wirkstoff behandelten Tiere wurde bestimmt.
Einer weiteren Gruppe von Versuchstieren wird der Wirkstoff appliziert. Der Wirkstoff wird dabei in neun Gaben in unterschiedlichen Versuchsreihen einmal zu je 100 mg/kg und in einer weiteren Versuchsreihe zu je 50 mg/kg verabreicht. In allen Fällen wird eine signifikante Verlängerungs der Lebensdauer der behandelten Testtiere gegenüber der Kontrollgruppe der nicht behandelten Tiere erzielt.

Molecule | cytostatische Wirksamkeit [1] | Verlängerungsrate T/C ([2]; 50 mg/kg per dose) [%] | Verlängerungsrate T/C ([2]; 100 mg/kg per dose) [%]
CN(CC(O)CBr)C[C@H](O)[C@@H](O)[C@H](O)[C@H](O)CO (some centres unmarked) [N-Methyl-N-(2-hydroxy-3-brom-propyl)-glucamin] | unwirksam |  | 
CN(CC(O)CCl)C[C@H](O)[C@@H](O)[C@H](O)[C@H](O)CO (some centres unmarked) [entsprechende 3-Chlorverbindung] | unwirksam |  | 
Di-(2-hydroxy-3-brompropan)-glucamin [Beispiel 1] | cytostatisch aktiv | 165 | 166
